US7361638B2, “Pharmaceutical combination for the treatment of tissue damage owing to an arterial irrigation defect” (Centro de Ingenieria Genetica y Biotecnologia, priority 2001, dated 2008)
“Also recorded” adds a separate entry of the source. Marks after values point to notes of the source that are not given here. Non-standard residues stand in square brackets, D forms with d. No end group written: not given here.

Experiments:
[1] = tested on: rat model of renal bilateral ischemia/reperfusion; assay: Renal ischemia/reperfusion, second phase (3 hours ischemia, similar reperfusion time); format: in vivo, Wistar rats; conditions: 3 h ischemia; for Urine output during the reperfusion period: EGF 20 μg, GHRP 50 μg, combination, mean and SD
Method: (§1) Renal arteries were clamped with microvascular clamps (Moria, Fine Science Tools, USA) for 60 minutes. After 3 hours of reperfusion the animals were monitored for another 30 minutes to establish renal functioning.
(§2) Glomerular filtration rate (GFR) and the renal plasmatic flow (RPF) were studied using molecular weight markers as inulin and p-amino hypuric. Clearance coefficients were determined as follows:
(§3) A catheter was fixed in the urinary bladder and the urethra was clamped. The free end of the catheter was inserted in a graduated tube and the urine volume was collected during 10 minutes.
Renal tissue samples were fixed in 10% buffered formalin, paraffin embedded, H&E stained and studied by independent pathologists using the following criteria: number of collapsed glomeruli, cortical hemorrhage, medullar hemorrhage, severe tubular damage, and severe interstitial damage.
During a second phase study, a larger ischemia period was introduced which allowed for studying the effect of the peptide in a more practical model with respect to the clinical practice. Kidneys were exposed to a 3 hours ischemia period and a similar reperfusion time.

[2] = tested on: Intestinal Ischemia/Reperfusion Model; assay: Intestinal ischemia/reperfusion model (2 hours ischemia, 3 hours reperfusion); format: in vivo, Sprague Dawley rats; conditions: 2 h ischemia, 3 h reperfusion
Method: Male Sprague Dawley (220-250 g) rats were randomly assigned to the following treatment groups: I: ischemia/normal saline. […] III: Ischemia/GHRP-6 100 μg/rat. IV: Ischemia/combination -EGF (5 μg)/GHRP-6 (2 μg)/rat. All the treatments were intraperitoneally administered 30 minutes prior to beginning the ischemia period. […] The artery was clamped for a period of 2 hours, thus provoking a severe ischemia time on the jejunum and ileum portions of the small intestine. Reperfusion was allowed for 3 hours. Rats were euthanized and subjected to complete autopsy. The small intestine was resected and the length of hemorrhagic mucosal and/or luminal damage was registered. Luminal content was flushed out with a standard volume of saline to determine the hemoglobin content. Intestinal mucosa was washed with warm normal saline, weighed and fragments used to determine total protein content by Lowry method. Other fragments were used for total DNA content and microscopic analysis. Villi/mucosal damage was microscopically analyzed as described by Chiu. This scale considers Grade 0 as intact mucosa progressing to Grade 5 as full-thickness denudation.

[3] = tested on: Experimental Model of Multiple Organ Damage by Extensive Burns; assay: Multiple organ damage by extensive burns (25% body surface scald), intestinal regeneration; format: in vivo, Balb/c mice; conditions: for Final weight (body weight) / % Increase of body weight: 10th day following scalding; for Final weight (body weight): after 20 administrations, table prints EGF 0.01 μg, GHRP 0.01 μg, mean and SD, in g (unit assumed); for Crypts depth / No. of crypts in fission (×200) / Villous height / No. of metaphases per crypt (×200): day 10 post-scalding; for % Increase of body weight: initial to final weight; for No. of metaphases per crypt (×200): vincristine 1 mg/kg six hours prior to death
Method: The dorsal region of Balb/c mice (22-25 g) was depilated and subjected to hypodermic scalding involving a 25% of body surface area, by immersion in equilibrated water at 95-97° C. for 5 seconds. All the mice received 1.5 ml of normal saline solution as fluid resuscitation immediately after. This animal model had been previously established and calibrated in our laboratory, and is useful to our goals as extensive internal changes are steadily reproduced. On the next 24 hours the surviving mice were randomly assigned to the following groups: Reference. Sham burned mice receiving saline 0.9% (N=5). Scalded receiving only normal saline 0.9%. […] Scalded and treated with GHRP-6 (N=9; 0.1 μg GHRP-6/animal). Scalded, treated with the peptide combination (N=10). […] Administrations were done twice a day and until day 10 post-scalding. Once the treatments were completed, animals were weighed again and euthanized for necropsy and microscopic examination. Six hours prior to death, every mouse received an injection of vincristine (1 mg/kg) to arrest cells on metaphase. Intestines were resected, flushed and weighed. Fragments were collected for total DNA and protein content. Other fragments were formalin fixed and used for routine processing or intestinal microdissection of villi and crypts. Morphometric procedures on the microscopic slides were derived from the […] image processing system. The following parameters were considered in this study: Animal weight. Intestinal weight, protein and DNA content. Number of cells in metaphase per crypt. Number of branching crypts. Villous height. Crypts depth.

[4] = tested on: rat model of renal bilateral ischemia/reperfusion; assay: Renal bilateral ischemia/reperfusion, first phase (1 hour ischemia, 3 hour reperfusion); format: in vivo, Wistar rats; conditions: 1 h ischemia, 3 h reperfusion; for Glomerular Filtration Rate / Renal Plasmatic Flow / Urine output during the reperfusion period: EGF 20 μg; for Glomerular Filtration Rate / Renal Plasmatic Flow: GHRP-6 50 μg, combination EGF 5 μg + GHRP-6 10 μg per rat i.p.; for Urine output during the reperfusion period: i.p. 30 min before ischemia, GHRP 50 μg, combination EGF 5 μg + GHRP-6 10 μg per rat, mean and SD; for Renal failure / oliguria, result in words: versus saline-treated ischemic controls
Method: The potential nephroprotective effects of each of the peptides alone or in combination was studied in a rat model of renal bilateral ischemia/reperfusion. In a first phase trial, a ischemia period of 1 hour followed by a 3 hour reperfusion period was established. Female Wistar rats (200-220 g) were randomly assigned to the following experimental groups (N=10):
Group II: Ischemic and normal saline solution 0.9%.
Group IV: Ischemic and GHRP −6-50 μg/rat.
All the treatments were intraperitoneally administered 30 minutes before ischemia.
as §1, §2
Uv(m) maximal urine volume per minute. […]
as §3
Renal tissue samples were homogenized in KCI/histidine (pH7.3) buffer and the supernatant was used to measure the activity of the enzymes PLA2, catalase, as the MDA reactive metabolite.
Renal tissue samples were fixed in 10% buffered formalin, paraffin embedded, H&E stained and studied by independent pathologists using the following criteria: number of collapsed glomeruli, cortical hemorrhage, medullar hemorrhage, severe tubular damage, and severe interstitial damage. […] GHRP-6 intervention increased urine formation 4 times as compared to saline treated animals, which argues in favor of renal functional protection.

[5] = tested on: gastric mucosa of animals exposed to a severe systemic stress; assay: Acute gastric stress damage model (cold swim and restraint); format: in vivo, OF-1 mice
Method: Adult, male OF-1 mice (20-23 g) were randomly assigned to receive GHRP-6 (0.1 μg/animal) or normal saline solution 0.9% (both i.p.). Ten to thirty minutes later animals were forced to swim in cold water for 30 minutes and later restrained for another 20 minute period at 4° C. Animals were thereafter anesthetized and euthanized for gastric mucosa inspection. Samples were fixed in 10% buffered formalin and H&E, and PAS stained for microscopic examination. Erosion, hemorrhage, and ulceration were the gross pathology criteria considered in the experiment (Playford RJ. Peptides and gastrointestinal mucosa integrity. Gut 1995, 37: 595-597). Microscopic ulceration was only considered when deeper than the first third of the glandular mucosa. Luminal bleeding was studied by measuring hemoglobin by the cyano metahemoglobin method (Reactivos Spinreact, Barcelona). Data were expressed in g/dL. All determinations were done in a blind fashion using a sham group.

[6] = tested on: Intestinal Ischemia/Reperfusion Model; assay: Survival after intestinal ischemia/reperfusion, monitored for 96 hours; format: in vivo, Sprague Dawley rats; conditions: 96 hours of reperfusion; N = 10; EGF 500 μg, GHRP-6 100 μg, EGF 5 μg + GHRP-6 2 μg
Method: In order to fully elucidate the protective effect of the combination treatment in this model of intestinal ischemia/reperfusion, survival was monitored until 96 hours of reperfusion.
A second and independent experiment was conducted in order to learn if the combination stimulated animals' survival. Experimental methodology is as described above. All the rats received an intraperitoneal injection of lactated Ringer following wound closure. Animals were monitored for 96 hours once reperfusion was initiated. […] (Table 9).

[7] = EGF 500 μg, GHRP-6 100 μg, combination EGF 5 μg + GHRP-6 2 μg per rat i.p.
[8] = GHRP-6 0.1 μg/animal i.p. 10-30 min before stress, 20 mice per group

Substance | Nephroprotection / urine volume, result in words [1] | Percent of animals/group showing Cortical Hemorrhage [1] | Percent of animals/group showing Damaged Glomeruli [1] | Percent of animals/group showing Interstitial Damage [1] | Percent of animals/group showing Medullar Hemorrhage [1] [%] | Urine output during the reperfusion period [1] | Intestinal mucosal protection, result in words [2] | Final weight (body weight) [3] | Crypts depth [3] [μm] | No. of crypts in fission (×200) [3] | Villous height [3] [μm] | % Increase of body weight [3] [%] | No. of metaphases per crypt (×200) [3] | Glomerular Filtration Rate [4] [ml/min/100 g] | Renal Plasmatic Flow [4] [ml/min/100 g] | Urine output during the reperfusion period [4] | Renal failure / oliguria, result in words [4] | other results
EGF: Epidermal Growth Factor of natural, synthetic or recombinant origins | negligible and contains hemoglobin | 70% | 80% | 80% | 80 | 83 ± 21 | minimal protection | 28.2 ± 3.3 | 48 ± 9 | 25 ± 8 | 118.7 ± 19 | 27 | 101 ± 35 | 0.3 ± 0.15 | 1.2 ± 0.61 | 114 ± 51 | attenuated the oliguria; also recorded: partially attenuate renal failure | Glomerular Filtration Rate [1]: 0.24 ± 0.15 ml/min/100 g; Renal Plasmatic Flow [1]: 0.6 ± 0.05 ml/min/100 g; DMA content [2, 7]: 0.4 ± 0.11 µg/cm; Luminal hemoglobin [2, 7]: 3.5 ± 1.02 g/dL; Mucosal Weight [2, 7]: 10.7 ± 4.5 g; Proteins Content [2, 7]: 1.08 ± 0.6 mg/cm; % of intestinal damage ([2]; i.p. 30 min before ischemia, EGF 500 μg, GHRP-6 100 μg, combination EGF 5 μg + GHRP-6 2 μg per rat, mean and SD): 78.7 ± 2.8%
H[dW]AW[dF]K-NH2 [GHRP-6] | Partial nephroprotection | 40♦ percent | 60♦ percent | 30♦ percent | 80 | 168 ± 33 | partial protection | 28.4 ± 1.8 | 40.8 ± 13 | 19 ± 6 | 99.2 ± 10 | 23 | 59 ± 12 | 0.46 ± 0.23 | 1.88 ± 0.8 | 208 ± 47 | partially attenuate renal failure | Epithelial Erosion, number of animals [5, 8]: 6; Epithelial Erosion, percent of animals [5, 8]: 30%; Luminal Hemorrhage, number of animals [5, 8]: 0 (0%)*; Luminal Hemorrhage, percent of animals [5, 8]: 0 (0%)*; Mucosal Hemorrhage, number of animals [5, 8]: 0 (0%)*; Mucosal Hemorrhage, percent of animals [5, 8]: 0 (0%)*; Total of ulcers ([5]; GHRP-6 0.1 μg/animal i.p., 20 mice per group): 3*; Luminal hemoglobin ([5]; GHRP-6 0.1 μg/animal i.p., cyano metahemoglobin method): 0* g/dL; Percent of animals/group showing Tubular Damage [1]: 50♦ percent; Survival (%) [6]: 40%; Increase of urine formation compared to saline treated animals ([4]; GHRP-6 50 μg/rat i.p.): 4 times
